# Species on record: Rattus norvegicus
# Assay: DrugMatrix - Regimen: Daily Repeat
# Type: toxicity, organism-based, Sprague-Dawley
# Design: regimen Daily Repeat, gender Male, age 6-8 weeks
# Conditions: in vivo, po, route oral GAVAGE, vehicle .5 % CMC; for ABSOLUTE BASOPHIL / ABSOLUTE EOSINOPHIL / ABSOLUTE LYMPHOCYTE / ABSOLUTE MONOCYTE / ABSOLUTE SEGMENTED NEUTROPHIL / BASOPHIL / EOSINOPHIL / ERYTHROCYTE COUNT / HEMATOCRIT / HEMOGLOBIN / LEUKOCYTE COUNT / LYMPHOCYTE / MEAN CORPUSCULAR HEMOGLOBIN / MEAN CORPUSCULAR HEMOGLOBIN CONCENTRATION / MEAN CORPUSCULAR VOLUME / MONOCYTE / NEUTROPHIL / NUCLEATED RED BLOOD CELLS / PLATELET COUNT: tissue Blood; for ALANINE AMINOTRANSFERASE / ALBUMIN / ALKALINE PHOSPHATASE / ASPARTATE AMINOTRANSFERASE / BLOOD UREA NITROGEN / CARBON DIOXIDE / CHLORIDE / CHOLESTEROL / CREATINE PHOSPHOKINASE / CREATININE / GLUCOSE / LACTATE DEHYDROGENASE / LIPASE / PHOSPHORUS / POTASSIUM / SODIUM / TOTAL BILIRUBIN / TOTAL PROTEIN / URIC ACID: tissue Plasma
# [1] = 31 mg/kg, 72 h, dose level Low, time 3 day
# [2] = 31 mg/kg, 120 h, dose level Low, time 5 day
# [3] = 76 mg/kg, 72 h, dose level High, time 3 day
# [4] = 76 mg/kg, 120 h, dose level High, time 5 day
compound,measurement,setting,value
O=C1CN(/N=C/c2ccc([N+](=O)[O-])o2)C(=O)N1 [NITROFURANTOIN],ABSOLUTE BASOPHIL,[1],0 CELLS/uL
same,ABSOLUTE EOSINOPHIL,[1],106.67 CELLS/uL
same,ABSOLUTE LYMPHOCYTE,[1],13250.33 CELLS/uL
same,ABSOLUTE MONOCYTE,[1],160 CELLS/uL
same,ABSOLUTE SEGMENTED NEUTROPHIL,[1],1583 CELLS/uL
same,BASOPHIL,[1],0%
same,EOSINOPHIL,[1],0.67%
same,ERYTHROCYTE COUNT,[1],5.65 x10E6/uL
same,HEMATOCRIT,[1],35.43%
same,HEMOGLOBIN,[1],13.47 G/DL
same,LEUKOCYTE COUNT,[1],15.1 x10E3/uL
same,LYMPHOCYTE,[1],88%
same,MEAN CORPUSCULAR HEMOGLOBIN,[1],23.9 pg
same,MEAN CORPUSCULAR HEMOGLOBIN CONCENTRATION,[1],38.03 G/DL
same,MEAN CORPUSCULAR VOLUME,[1],62.77 fL
same,MONOCYTE,[1],1%
same,NEUTROPHIL,[1],10.33%
same,NUCLEATED RED BLOOD CELLS,[1],0.33 /100WBC
same,PLATELET COUNT,[1],1275.33 x10E3/uL
same,ALANINE AMINOTRANSFERASE,[1],49.33 u/L
same,ALBUMIN,[1],4.4 G/DL
same,ALKALINE PHOSPHATASE,[1],440.67 u/L
same,ASPARTATE AMINOTRANSFERASE,[1],85 u/L
same,BLOOD UREA NITROGEN,[1],15.33 mg/dL
same,CARBON DIOXIDE,[1],22.67 mmol/L
same,CHLORIDE,[1],105.67 MEQ/L
same,CHOLESTEROL,[1],74.67 mg/dL
same,CREATINE PHOSPHOKINASE,[1],232.33 u/L
same,CREATININE,[1],0.25 mg/dL
same,GLUCOSE,[1],142.33 mg/dL
same,LACTATE DEHYDROGENASE,[1],280 u/L
same,LIPASE,[1],9.67 u/L
same,PHOSPHORUS,[1],13.57 mg/dL
same,POTASSIUM,[1],6.78 MEQ/L
same,SODIUM,[1],147.27 MEQ/L
same,TOTAL BILIRUBIN,[1],0.27 mg/dL
same,TOTAL PROTEIN,[1],6.1 G/DL
same,URIC ACID,[1],2.1 mg/dL
same,ABSOLUTE BASOPHIL,[2],0 CELLS/uL
same,ABSOLUTE EOSINOPHIL,[2],48 CELLS/uL
same,ABSOLUTE LYMPHOCYTE,[2],14184 CELLS/uL
same,ABSOLUTE MONOCYTE,[2],368 CELLS/uL
same,ABSOLUTE SEGMENTED NEUTROPHIL,[2],1000 CELLS/uL
same,BASOPHIL,[2],0%
same,EOSINOPHIL,[2],0.33%
same,ERYTHROCYTE COUNT,[2],5.46 x10E6/uL
same,HEMATOCRIT,[2],34.3%
same,HEMOGLOBIN,[2],13.23 G/DL
same,LEUKOCYTE COUNT,[2],15.6 x10E3/uL
same,LYMPHOCYTE,[2],90.67%
same,MEAN CORPUSCULAR HEMOGLOBIN,[2],24.3 pg
same,MEAN CORPUSCULAR HEMOGLOBIN CONCENTRATION,[2],38.57 G/DL
same,MEAN CORPUSCULAR VOLUME,[2],62.93 fL
same,MONOCYTE,[2],2.33%
same,NEUTROPHIL,[2],6.67%
same,NUCLEATED RED BLOOD CELLS,[2],0.33 /100WBC
same,PLATELET COUNT,[2],1440 x10E3/uL
same,ALANINE AMINOTRANSFERASE,[2],44.67 u/L
same,ALBUMIN,[2],4.27 G/DL
same,ALKALINE PHOSPHATASE,[2],262 u/L
same,ASPARTATE AMINOTRANSFERASE,[2],72.33 u/L
same,BLOOD UREA NITROGEN,[2],13.67 mg/dL
same,CARBON DIOXIDE,[2],25.67 mmol/L
same,CHLORIDE,[2],106.33 MEQ/L
same,CHOLESTEROL,[2],58.33 mg/dL
same,CREATINE PHOSPHOKINASE,[2],186 u/L
same,CREATININE,[2],0.19 mg/dL
same,GLUCOSE,[2],159 mg/dL
same,LACTATE DEHYDROGENASE,[2],76.67 u/L
same,LIPASE,[2],11.67 u/L
same,PHOSPHORUS,[2],12.87 mg/dL
same,POTASSIUM,[2],6.41 MEQ/L
same,SODIUM,[2],147.13 MEQ/L
same,TOTAL BILIRUBIN,[2],0.17 mg/dL
same,TOTAL PROTEIN,[2],5.97 G/DL
same,URIC ACID,[2],2.1 mg/dL
same,ABSOLUTE BASOPHIL,[3],0 CELLS/uL
same,ABSOLUTE EOSINOPHIL,[3],0 CELLS/uL
same,ABSOLUTE LYMPHOCYTE,[3],13972.67 CELLS/uL
same,ABSOLUTE MONOCYTE,[3],336.33 CELLS/uL
same,ABSOLUTE SEGMENTED NEUTROPHIL,[3],1224.33 CELLS/uL
same,BASOPHIL,[3],0%
same,EOSINOPHIL,[3],0%
same,ERYTHROCYTE COUNT,[3],5.83 x10E6/uL
same,HEMATOCRIT,[3],38.1%
same,HEMOGLOBIN,[3],13.73 G/DL
same,LEUKOCYTE COUNT,[3],15.53 x10E3/uL
same,LYMPHOCYTE,[3],89.33%
same,MEAN CORPUSCULAR HEMOGLOBIN,[3],23.53 pg
same,MEAN CORPUSCULAR HEMOGLOBIN CONCENTRATION,[3],36 G/DL
same,MEAN CORPUSCULAR VOLUME,[3],65.37 fL
same,MONOCYTE,[3],2.33%
same,NEUTROPHIL,[3],8.33%
same,NUCLEATED RED BLOOD CELLS,[3],0 /100WBC
same,PLATELET COUNT,[3],1452.67 x10E3/uL
same,ALANINE AMINOTRANSFERASE,[3],48.67 u/L
same,ALBUMIN,[3],4.37 G/DL
same,ALKALINE PHOSPHATASE,[3],355.67 u/L
same,ASPARTATE AMINOTRANSFERASE,[3],77 u/L
same,BLOOD UREA NITROGEN,[3],14.33 mg/dL
same,CARBON DIOXIDE,[3],25 mmol/L
same,CHLORIDE,[3],103.67 MEQ/L
same,CHOLESTEROL,[3],77 mg/dL
same,CREATINE PHOSPHOKINASE,[3],150 u/L
same,CREATININE,[3],0.21 mg/dL
same,GLUCOSE,[3],208.33 mg/dL
same,LACTATE DEHYDROGENASE,[3],99 u/L
same,LIPASE,[3],9.67 u/L
same,PHOSPHORUS,[3],13.23 mg/dL
same,POTASSIUM,[3],6.13 MEQ/L
same,SODIUM,[3],146.97 MEQ/L
same,TOTAL BILIRUBIN,[3],0.23 mg/dL
same,TOTAL PROTEIN,[3],6.1 G/DL
same,URIC ACID,[3],2.37 mg/dL
same,ABSOLUTE BASOPHIL,[4],0 CELLS/uL
same,ABSOLUTE EOSINOPHIL,[4],34.67 CELLS/uL
same,ABSOLUTE LYMPHOCYTE,[4],10550 CELLS/uL
same,ABSOLUTE MONOCYTE,[4],260.33 CELLS/uL
same,ABSOLUTE SEGMENTED NEUTROPHIL,[4],1188.33 CELLS/uL
same,BASOPHIL,[4],0%
same,EOSINOPHIL,[4],0.33%
same,ERYTHROCYTE COUNT,[4],5.54 x10E6/uL
same,HEMATOCRIT,[4],34.03%
same,HEMOGLOBIN,[4],12.9 G/DL
same,LEUKOCYTE COUNT,[4],12.03 x10E3/uL
same,LYMPHOCYTE,[4],88%
same,MEAN CORPUSCULAR HEMOGLOBIN,[4],23.27 pg
same,MEAN CORPUSCULAR HEMOGLOBIN CONCENTRATION,[4],37.9 G/DL
same,MEAN CORPUSCULAR VOLUME,[4],61.4 fL
same,MONOCYTE,[4],2%
same,NEUTROPHIL,[4],9.67%
same,NUCLEATED RED BLOOD CELLS,[4],0 /100WBC
same,PLATELET COUNT,[4],1320 x10E3/uL
same,ALANINE AMINOTRANSFERASE,[4],44.67 u/L
same,ALBUMIN,[4],4.2 G/DL
same,ALKALINE PHOSPHATASE,[4],279.67 u/L
same,ASPARTATE AMINOTRANSFERASE,[4],85.67 u/L
same,BLOOD UREA NITROGEN,[4],17 mg/dL
same,CARBON DIOXIDE,[4],25.67 mmol/L
same,CHLORIDE,[4],105 MEQ/L
same,CHOLESTEROL,[4],70 mg/dL
same,CREATINE PHOSPHOKINASE,[4],220 u/L
same,CREATININE,[4],0.18 mg/dL
same,GLUCOSE,[4],163.33 mg/dL
same,LACTATE DEHYDROGENASE,[4],160.67 u/L
same,LIPASE,[4],9.33 u/L
same,PHOSPHORUS,[4],12.57 mg/dL
same,POTASSIUM,[4],6.4 MEQ/L
same,SODIUM,[4],146.63 MEQ/L
same,TOTAL BILIRUBIN,[4],0.2 mg/dL
same,TOTAL PROTEIN,[4],5.87 G/DL
same,URIC ACID,[4],2.37 mg/dL

# From ChEMBL document CHEMBL3885881, “DrugMatrix”
